Results from patent publication US20260365653A1, “IRREVERSIBLE MUTEGFR INHIBITORS” (Bayer Aktiengesellschaft, priority 2022, published 2026).

Legend:
[1] = biological target: T1, mutEGFR (D770_N771insSVD) (Homo sapiens, UniProt P00533, DUP768-770); assay: Exon20-Mutant-EGFR (D770_N771insSVD) kinase assay (TR-FRET); type: biochemical; conditions: mutEGFR (D770_N771insSVD) kinase assay IC50, Table 2a; D770_N771insSVD; 2 mM ATP
T1 construct: GST-EGFR #3 (SVD between D770 and N771); made in house; host or cells: Sf9 insect cells (baculovirus)
T1 sequence (P00533 with tags, fused parts or gaps DUP768-770): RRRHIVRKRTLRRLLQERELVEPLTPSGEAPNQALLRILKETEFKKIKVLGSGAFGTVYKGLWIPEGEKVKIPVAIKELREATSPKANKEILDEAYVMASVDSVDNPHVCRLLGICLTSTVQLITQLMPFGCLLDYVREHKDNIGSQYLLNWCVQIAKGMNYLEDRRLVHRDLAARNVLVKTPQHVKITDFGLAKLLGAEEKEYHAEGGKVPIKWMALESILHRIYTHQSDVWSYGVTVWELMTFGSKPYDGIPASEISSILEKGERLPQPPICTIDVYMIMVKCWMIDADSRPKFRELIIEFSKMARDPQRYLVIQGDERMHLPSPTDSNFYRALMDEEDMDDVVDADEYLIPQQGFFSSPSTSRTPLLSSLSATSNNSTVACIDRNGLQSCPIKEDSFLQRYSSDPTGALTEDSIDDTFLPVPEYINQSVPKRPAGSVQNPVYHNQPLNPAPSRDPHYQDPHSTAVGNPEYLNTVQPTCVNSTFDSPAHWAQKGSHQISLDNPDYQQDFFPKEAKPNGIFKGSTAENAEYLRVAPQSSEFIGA

[2] = biological target: T2, mutEGFR (D770_N771insNPG, T790) (Homo sapiens, UniProt P00533, INS770NPG/T790M); assay: mutEGFR (D770_N771insNPG, T790) kinase assay; type: biochemical; conditions: Table 2a, D770_N771insNPG
T2 construct: exact insNPG construct not described; in-house EGFR proteins were N-terminal GST fusions from baculovirus/insect cells (borders R669-A1210 given only for WT, insSVD, insASV)
T2 sequence (P00533 with tags, fused parts or gaps INS770NPG/T790M limits assumed): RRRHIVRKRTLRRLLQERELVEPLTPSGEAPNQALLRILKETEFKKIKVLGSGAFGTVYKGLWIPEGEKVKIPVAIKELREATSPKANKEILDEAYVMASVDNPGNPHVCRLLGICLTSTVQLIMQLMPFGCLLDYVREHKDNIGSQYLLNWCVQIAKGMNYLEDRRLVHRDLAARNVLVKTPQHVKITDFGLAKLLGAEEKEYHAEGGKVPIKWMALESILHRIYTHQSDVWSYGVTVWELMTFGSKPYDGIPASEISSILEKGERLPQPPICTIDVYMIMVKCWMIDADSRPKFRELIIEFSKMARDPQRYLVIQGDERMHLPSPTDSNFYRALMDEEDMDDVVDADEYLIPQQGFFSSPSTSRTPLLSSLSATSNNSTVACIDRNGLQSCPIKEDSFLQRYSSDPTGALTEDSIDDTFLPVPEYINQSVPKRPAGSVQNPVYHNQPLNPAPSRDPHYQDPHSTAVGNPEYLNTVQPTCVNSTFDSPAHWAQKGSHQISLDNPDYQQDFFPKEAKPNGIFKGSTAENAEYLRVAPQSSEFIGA
Source text: The different EGFR proteins used in the biochemical kinase activity inhibition assays were generated inhouse by expression in insect cells using Baculo Virus system and subsequent purification as described in the following paragraphs.
The cDNAs encoding the various protein sequences from human EGFR human (P00533) were optimized for expression in eukaryotic cells and synthesized by the GeneArt Technology at Life Technologies.

BA/F3 (insSVD) cells = assay: Ba/F3-EGFR-insSVD cell survival assay (Cell Titer-Glo); type: cell-based; conditions: Mus musculus, BaF3, 48 h, Table 3a, cell survival, Cell Titer-Glo, with 10 ng/ml EGF, without IL-3
Outline: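 Ba/F3 cells stably expressing retroviral EGFR-insSVD or insSVD T790M, grown without IL-3 on 10 ng/ml EGF, 4000 cells/well. Compound pinned in, 48 h at 37° C. Viability by CellTiter-Glo luminescence.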

| IC50 [1] | IC50 [2] | SMILES | IC50 (BA/F3 (insSVD) cells) |
| --- | --- | --- | --- |
| 0.0062 µM | 0.0598 µM | CN(C)C/C=C/C(=O)N1Cc2c(-c3ccncc3)c(-c3ccc(Cl)cc3)nn2CC1(C)C [Example 217, (2E)-1-[2-(4-chlorophenyl)-6,6-dimethyl-3-(pyridin-4-yl)-6,7-dihydropyrazolo[1,5-a]pyrazin-5(4H)-yl]-4-(dimethylamino)but-2-en-1-one] | 0.277 µM |
| 0.0101 µM | 0.0366 µM | C=CC(=O)N1Cc2c(-c3ccncc3)c(-c3ccc(F)cc3)nn2C(CC(=O)NC)C1 (stereo not drawn) [Example 225, 2-(5-acryloyl-2-(4-fluorophenyl)-3-(pyridin-4-yl)-4,5,6,7-tetrahydropyrazolo[1,5-a]pyrazin-7-yl)-N-methylacetamide] | 0.386 µM |
| 0.014 µM | 0.0233 µM | C=CC(=O)N1Cc2c(-c3ccncc3)c(-c3ccc(F)cc3)nn2C(CC(=O)N(C)C)C1 (stereo not drawn) [Example 226, 2-(5-acryloyl-2-(4-fluorophenyl)-3-(pyridin-4-yl)-4,5,6,7-tetrahydropyrazolo[1,5-a]pyrazin-7-yl)-N,N-dimethylacetamide] | 0.134 µM |
| 0.000113 µM | 0.000262 µM | C[C@H]1Cn2nc(-c3ccc(Cl)cc3)c(-c3ccncc3)c2CN1C(=O)/C=C/CN(C)C [Example 245, (2E)-1-[(6S)-2-(4-chlorophenyl)-6-methyl-3-(pyridin-4-yl)-6,7-dihydropyrazolo[1,5-a]pyrazin-5(4H)-yl]-4-(dimethylamino)but-2-en-1-one] | 0.0119 µM |

Continued, molecule first:

| SMILES | IC50 [1] | IC50 [2] | IC50 (BA/F3 (insSVD) cells) |
| --- | --- | --- | --- |
| CN(C)C/C=C/C(=O)N1Cc2c(-c3ccncc3)c(-c3ccc(Cl)cc3)nn2C(C)(C)C1 [Example 215, (2E)-1-[2-(4-chlorophenyl)-7,7-dimethyl-3-(pyridin-4-yl)-6,7-dihydropyrazolo[1,5-a]pyrazin-5(4H)-yl]-4-(dimethylamino)but-2-en-1-one] | 0.000513 µM | 0.0012 µM | 0.0417 µM |
| CN(C)C/C=C/C(=O)N1Cc2c(-c3ccncc3)c(-c3ccc(F)cc3)nn2CC1(C)C [Example 216, (2E)-4-(dimethylamino)-1-[2-(4-fluorophenyl)-6,6-dimethyl-3-(pyridin-4-yl)-6,7-dihydropyrazolo[1,5-a]pyrazin-5(4H)-yl]but-2-en-1-one] | 0.025 µM | 0.164 µM | 0.418 µM |
| Cc1cc(-c2nn3c(c2-c2ccncc2)CN(C(=O)/C=C/CN(C)C)C(C)(C)C3)ccc1Cl [Example 218, (2E)-1-[2-(4-chloro-3-methylphenyl)-6,6-dimethyl-3-(pyridin-4-yl)-6,7-dihydropyrazolo[1,5-a]pyrazin-5(4H)-yl]-4-(dimethylamino)but-2-en-1-one] | 0.00699 µM | 0.0164 µM | 0.367 µM |
| C=CC(=O)N1Cc2c(-c3ccncc3)c(-c3ccc(F)cc3)nn2C(CCO)C1 (stereo not drawn) [Example 223, 1-(2-(4-fluorophenyl)-7-(2-hydroxyethyl)-3-(pyridin-4-yl)-6,7-dihydropyrazolo[1,5-a]pyrazin-5(4H)-yl) prop-2-en-1-one] | 0.000336 µM | 0.00125 µM | 0.018 µM |
| C=CC(=O)N1Cc2c(-c3ccncc3)c(-c3ccc(F)cc3)nn2C(CC(N)=O)C1 (stereo not drawn) [Example 224, 2-(5-acryloyl-2-(4-fluorophenyl)-3-(pyridin-4-yl)-4,5,6,7-tetrahydropyrazolo[1,5-a]pyrazin-7-yl) acetamide] | 0.00238 µM | 0.00759 µM | 0.338 µM |
| C=CC(=O)N1Cc2c(-c3ccncc3)c(-c3ccc(Cl)cc3F)nn2CC1C (stereo not drawn) [Example 227, 1-(2-(4-chloro-2-fluorophenyl)-6-methyl-3-(pyridin-4-yl)-6,7-dihydropyrazolo[1,5-a]pyrazin-5(4H)-yl) prop-2-en-1-one] | 0.00012 µM | 0.000394 µM | 0.00594 µM |
| C[C@@H]1Cn2nc(-c3ccc(Cl)cc3)c(-c3ccncc3)c2CN1C(=O)/C=C/CN(C)C [Example 246, (2E)-1-[(6R)-2-(4-chlorophenyl)-6-methyl-3-(pyridin-4-yl)-6,7-dihydropyrazolo[1,5-a]pyrazin-5(4H)-yl]-4-(dimethylamino)but-2-en-1-one] | 0.000131 µM | 0.000203 µM | 0.0337 µM |
